From publication PMC9905117, “Characterization of the metabolism of eupalinolide A and B by carboxylesterase and cytochrome P450 in human liver microsomes” (Frontiers in Pharmacology, 2023)

Tested on: Carboxylesterase
Assay: Inhibition of EA or EB hydrolysis in HLMs by carboxylesterase inhibitor BNPP
Format: biochemical, human
Conditions: HLMs 0.5 g/L, no NADPH, 30 min
Experimental: To determine ideal BNPP concentration for inhibiting carboxylesterase activity in HLMs, an incubation system consisting of 100 mM phosphate buffer solution at pH 7.4, HLMs (0.5 g/L), MgCl2 (5 mM) and BNPP (0.5, 1, 1.5 and 2 mM) was prepared ([Zhuang et al., 2014]; [Wang Y. Q. et al., 2020]; [Zhang et al., 2022d]; [Jin et al., 2022]). The mixture was preincubated at 37°C for 5 min and the metabolic reaction was initiated by addition of EA or EB (at a final concentration of 10 μM). Positive control groups lacked BNPP while negative control groups contained deactivated HLMs. […] The above reaction was terminated by adding 200 µl of ice-cold stop solution at 30 min. Sample preparation and evaluation were as described in 2.2.1. All incubations were performed in triplicate. The percentage of EA or EB hydrolysis inhibition was calculated using the following Eq. 1: Inhibition%=1−∆substrate in the presence of chemical inhibitor/∆substrate in the absence of chemical inhibitor×100% (1)

O=[N+]([O-])c1ccc(OP(=O)(O)Oc2ccc([N+](=O)[O-])cc2)cc1 [BNPP, bis(4-nitrophenyl) phosphoricacid]
inhibitory percentage of EA hydrolysis (BNPP 0.5 mM, EA 10 μM): 87.38%
inhibitory rate of EB hydrolysis (BNPP 2 mM, EB 10 μM): 86.11%
